The values below come from ChEMBL document CHEMBL1697781, “Assessment of the health effects of chemicals in humans: II. Construction of an adverse effects database for QSAR modeling” (Curr Drug Discov Technol, 2004).

Holding throughout (conditions): human
The test system of data set [1] is Hepatotoxicity. Briefly: FDA HLAED, alkaline phosphatase increase.
Data set [2] has as its system Hepatotoxicity. The experiment in a line: FDA HLAED, serum glutamic oxaloacetic transaminase (SGOT) increase.
Data set [3] relates to Hepatotoxicity. The experiment in a line: FDA HLAED, lactate dehydrogenase (LDH) increase.
The subject of data set [4] is Hepatotoxicity. Briefly: FDA HLAED, liver enzyme composite activity.
In data set [5] the test system is Hepatotoxicity. Briefly: FDA HLAED, gamma-glutamyl transferase (GGT) increase.
For data set [6], the system named is Hepatotoxicity. Briefly: FDA HLAED, serum glutamic pyruvic transaminase (SGPT) increase.

Molecules are shown by their SMILES. Some results are limits rather than exact numbers.
Wherever GGT Increase - Index Value is given: reference of the scale not given here.
Wherever LDH Increase - Index Value is given: reference of the scale not given here.

On to `FC(F)OC(F)C(F)(F)F` (stereo unspecified), for which, in the data set on Hepatotoxicity [1], the “Alkaline Phosphatase Increase - Activity Score” value is “Inactive”, the “Alkaline Phosphatase Increase - Index Value” is recorded as 0.3 and the “Alkaline Phosphatase Increase - Number of Reports” value is less than 4. In addition, in the data set on Hepatotoxicity [2], the “SGOT Increase - Activity Score” value is reported as “Inactive”, the “SGOT Increase - Index Value” is 1.3 and the “SGOT Increase - Number of Reports” value is listed as “>= 4”. Also, in the data set with Hepatotoxicity [3], the “LDH Increase - Activity Score” value is “Inactive”, the “LDH Increase - Index Value” worked out at 0.5 and the “LDH Increase - Number of Reports” value is reported as less than 4. In the data set with Hepatotoxicity [4], the “Composite Activity - Active” value was 0, the “Composite Activity - Marginal” value came to 0 and the “Composite Activity - Score” value is reported as “Inactive”. In the data set on Hepatotoxicity [5], the “GGT Increase - Activity Score” value is given as “Inactive”, the “GGT Increase - Index Value” was 0.5 and the “GGT Increase - Number of Reports” value is listed as less than 4. Further, in the data set with Hepatotoxicity [6], the “SGPT Increase - Activity Score” value was “Inactive”, the “SGPT Increase - Index Value” was found to be 0.8 and the “SGPT Increase - Number of Reports” value is given as less than 4.
With `CCOC(=O)[C@H](CCc1ccccc1)N[C@@H](C)C(=O)N1Cc2ccccc2C[C@H]1C(=O)O`, in the data set on Hepatotoxicity [1], the “Alkaline Phosphatase Increase - Activity Score” value is reported as “Inactive”, the “Alkaline Phosphatase Increase - Index Value” is listed as 1.4 and the “Alkaline Phosphatase Increase - Number of Reports” value was “>= 4”. In the data set on Hepatotoxicity [2], the “SGOT Increase - Activity Score” value is “Inactive”, the “SGOT Increase - Index Value” is reported as 1.1 and the “SGOT Increase - Number of Reports” value is given as “>= 4”. In addition, in the data set with Hepatotoxicity [3], the “LDH Increase - Activity Score” value is recorded as “Inactive”, the “LDH Increase - Index Value” stood at 0.4 and the “LDH Increase - Number of Reports” value is given as less than 4. In addition, in the data set on Hepatotoxicity [4], the “Composite Activity - Active” value was 0, the “Composite Activity - Marginal” value came to 0 and the “Composite Activity - Score” value is “Inactive”. In addition, in the data set with Hepatotoxicity [5], the “GGT Increase - Activity Score” value is reported as “Inactive”, the “GGT Increase - Index Value” was 1.4 and the “GGT Increase - Number of Reports” value was “>= 4”. Further, in the data set with Hepatotoxicity [6], the “SGPT Increase - Activity Score” value is on record as “Inactive”, the “SGPT Increase - Index Value” turned out to be 1.2 and the “SGPT Increase - Number of Reports” value was “>= 4”.
Take `CCOC(=O)[C@H](CCc1ccccc1)N[C@@H](C)C(=O)N1CCC[C@H]1C(=O)O`: in the data set with Hepatotoxicity [1], the “Alkaline Phosphatase Increase - Activity Score” value is “Inactive”, the “Alkaline Phosphatase Increase - Index Value” is recorded as 0.9 and the “Alkaline Phosphatase Increase - Number of Reports” value is on record as “>= 4”. For the same compound, in the data set with Hepatotoxicity [2], the “SGOT Increase - Activity Score” value is “Inactive”, the “SGOT Increase - Index Value” is recorded as 1 and the “SGOT Increase - Number of Reports” value is “>= 4”. In the data set with Hepatotoxicity [3], the “LDH Increase - Activity Score” value is given as “Inactive”, the “LDH Increase - Index Value” turned out to be 0.6 and the “LDH Increase - Number of Reports” value is “>= 4”. Besides, in the data set with Hepatotoxicity [4], the “Composite Activity - Active” value was determined as 0, the “Composite Activity - Marginal” value came out at 0 and the “Composite Activity - Score” value is reported as “Inactive”. Moreover, in the data set on Hepatotoxicity [5], the “GGT Increase - Activity Score” value is reported as “Inactive”, the “GGT Increase - Index Value” stood at 0.2 and the “GGT Increase - Number of Reports” value is reported as “>= 4”. For the same compound, in the data set on Hepatotoxicity [6], the “SGPT Increase - Activity Score” value is “Inactive”, the “SGPT Increase - Index Value” was found to be 0.8 and the “SGPT Increase - Number of Reports” value was “>= 4”.
For the compound `COc1ccc(CCN(C)CCCC(C#N)(c2ccc(OC)c(OC)c2)C(C)C)cc1OC` (stereo unspecified), in the data set on Hepatotoxicity [1], the “Alkaline Phosphatase Increase - Activity Score” value is given as “Inactive” and the “Alkaline Phosphatase Increase - Number of Reports” value is recorded as “>= 4”. In addition, in the data set on Hepatotoxicity [3], the “LDH Increase - Activity Score” value is “Inactive” and the “LDH Increase - Number of Reports” value is recorded as less than 4. In the data set with Hepatotoxicity [4], the “Composite Activity - Active” value came out at 0, the “Composite Activity - Marginal” value came to 0 and the “Composite Activity - Score” value is “Inactive”. Moreover, in the data set on Hepatotoxicity [5], the “GGT Increase - Activity Score” value is “Inactive” and the “GGT Increase - Number of Reports” value is less than 4. Moreover, in the data set on Hepatotoxicity [6], the “SGPT Increase - Activity Score” value is recorded as “Inactive” and the “SGPT Increase - Number of Reports” value is less than 4.
With `O=NN(CCCl)C(=O)NCCCl` [CARMUSTINE], in the data set with Hepatotoxicity [3], the “LDH Increase - Activity Score” value is given as “Active”, the “LDH Increase - Index Value” is on record as 14.6 and the “LDH Increase - Number of Reports” value is on record as “>= 4”. In the data set on Hepatotoxicity [4], the “Composite Activity - Active” value came out at 1 and the “Composite Activity - Marginal” value is reported as 0.
As for `O=P1(N(CCCl)CCCl)NCCCO1` (stereo unspecified) [CYCLOPHOSPHAMIDE ANHYDROUS], in the data set with Hepatotoxicity [1], the “Alkaline Phosphatase Increase - Activity Score” value is recorded as “Active”, the “Alkaline Phosphatase Increase - Index Value” was 4.6 and the “Alkaline Phosphatase Increase - Number of Reports” value is recorded as “>= 4”. Also, in the data set with Hepatotoxicity [2], the “SGOT Increase - Activity Score” value is reported as “Active”, the “SGOT Increase - Index Value” is recorded as 8.5 and the “SGOT Increase - Number of Reports” value is listed as “>= 4”. In the data set with Hepatotoxicity [3], the “LDH Increase - Activity Score” value is on record as “Active”, the “LDH Increase - Index Value” turned out to be 8.5 and the “LDH Increase - Number of Reports” value is “>= 4”. For the same compound, in the data set with Hepatotoxicity [4] (Liver), the “Composite Activity - Active” value turned out to be 4, the “Composite Activity - Marginal” value was determined as 0 and the “Composite Activity - Score” value is listed as “Active”. Besides, in the data set on Hepatotoxicity [6], the “SGPT Increase - Activity Score” value was “Active”, the “SGPT Increase - Index Value” came out at 8.5 and the “SGPT Increase - Number of Reports” value is “>= 4”.
With `O=c1[nH]cc(F)c(=O)[nH]1` [FLUOROURACIL], in the data set with Hepatotoxicity [1], the “Alkaline Phosphatase Increase - Activity Score” value is recorded as “Active”, the “Alkaline Phosphatase Increase - Index Value” is reported as 5.5 and the “Alkaline Phosphatase Increase - Number of Reports” value is “>= 4”. Besides, in the data set on Hepatotoxicity [3], the “LDH Increase - Activity Score” value was “Marginally Active”, the “LDH Increase - Index Value” worked out at 3.6 and the “LDH Increase - Number of Reports” value was “>= 4”. Besides, in the data set with Hepatotoxicity [4], the “Composite Activity - Active” value turned out to be 1 and the “Composite Activity - Marginal” value is 1.
For `CN(Cc1cnc2nc(N)nc(N)c2n1)c1ccc(C(=O)N[C@@H](CCC(=O)O)C(=O)O)cc1` [METHOTREXATE], in the data set on Hepatotoxicity [2], the “SGOT Increase - Activity Score” value was “Active”, the “SGOT Increase - Index Value” worked out at 5.3 and the “SGOT Increase - Number of Reports” value was “>= 4”. Moreover, in the data set with Hepatotoxicity [3], the “LDH Increase - Activity Score” value is reported as “Marginally Active”, the “LDH Increase - Index Value” is listed as 3.5 and the “LDH Increase - Number of Reports” value is recorded as “>= 4”. In the data set on Hepatotoxicity [4], the “Composite Activity - Active” value amounted to 2, the “Composite Activity - Marginal” value worked out at 1 and the “Composite Activity - Score” value was “Active”. In addition, in the data set on Hepatotoxicity [6], the “SGPT Increase - Activity Score” value is reported as “Active”, the “SGPT Increase - Index Value” was 6.4 and the “SGPT Increase - Number of Reports” value is on record as “>= 4”.
For the compound `NC1=NC(=O)C(c2ccccc2)O1` (stereo unspecified) [PEMOLINE], in the data set with Hepatotoxicity [1], the “Alkaline Phosphatase Increase - Activity Score” value was “Active”, the “Alkaline Phosphatase Increase - Index Value” stood at 14 and the “Alkaline Phosphatase Increase - Number of Reports” value was “>= 4”. Besides, in the data set on Hepatotoxicity [2], the “SGOT Increase - Activity Score” value was “Active”, the “SGOT Increase - Index Value” is on record as 22.7 and the “SGOT Increase - Number of Reports” value is “>= 4”. In the data set with Hepatotoxicity [3], the “LDH Increase - Activity Score” value is “Active”, the “LDH Increase - Index Value” was 6.2 and the “LDH Increase - Number of Reports” value was “>= 4”. Also, in the data set with Hepatotoxicity [4], the “Composite Activity - Active” value turned out to be 4, the “Composite Activity - Marginal” value came to 0 and the “Composite Activity - Score” value is “Active”. Besides, in the data set with Hepatotoxicity [6], the “SGPT Increase - Activity Score” value is listed as “Active”, the “SGPT Increase - Index Value” was found to be 23.5 and the “SGPT Increase - Number of Reports” value is “>= 4”.
In the case of `NC(=O)c1ncn([C@@H]2O[C@H](CO)[C@@H](O)[C@H]2O)n1` [RIBAVIRIN], in the data set on Hepatotoxicity [1], the “Alkaline Phosphatase Increase - Activity Score” value is given as “Inactive” and the “Alkaline Phosphatase Increase - Number of Reports” value was less than 4. For the same compound, in the data set on Hepatotoxicity [2], the “SGOT Increase - Activity Score” value is on record as “Inactive” and the “SGOT Increase - Number of Reports” value is less than 4. In the data set on Hepatotoxicity [4], the “Composite Activity - Active” value was determined as 0, the “Composite Activity - Marginal” value stood at 0 and the “Composite Activity - Score” value is reported as “Inactive”. In the data set with Hepatotoxicity [5], the “GGT Increase - Activity Score” value was “Inactive” and the “GGT Increase - Number of Reports” value is on record as less than 4. In the data set with Hepatotoxicity [6], the “SGPT Increase - Activity Score” value was “Inactive” and the “SGPT Increase - Number of Reports” value is given as less than 4.
Consider `CO[C@H]1/C=C/O[C@@]2(C)Oc3c(C)c(O)c4c(O)c(c(/C=N/N5CCN(C)CC5)c(O)c4c3C2=O)NC(=O)/C(C)=C\C=C\[C@H](C)[C@H](O)[C@@H](C)[C@@H](O)[C@@H](C)[C@H](OC(C)=O)[C@@H]1C` [RIFAMPIN], for which, in the data set on Hepatotoxicity [1], the “Alkaline Phosphatase Increase - Activity Score” value is “Marginally Active”, the “Alkaline Phosphatase Increase - Index Value” is “No Shipping Units” and the “Alkaline Phosphatase Increase - Number of Reports” value is “>= 4”. For the same compound, in the data set on Hepatotoxicity [2], the “SGOT Increase - Activity Score” value is listed as “Active”, the “SGOT Increase - Index Value” is “No Shipping Units” and the “SGOT Increase - Number of Reports” value is “>= 4”. Moreover, in the data set on Hepatotoxicity [3], the “LDH Increase - Activity Score” value is recorded as “Marginally Active”, the “LDH Increase - Index Value” is listed as “No Shipping Units” and the “LDH Increase - Number of Reports” value was “>= 4”. For the same compound, in the data set with Hepatotoxicity [4], the “Composite Activity - Active” value came to 1, the “Composite Activity - Marginal” value came to 3 and the “Composite Activity - Score” value is “Marginally Active”. In the data set with Hepatotoxicity [6], the “SGPT Increase - Activity Score” value is “Marginally Active”, the “SGPT Increase - Index Value” is listed as “No Shipping Units” and the “SGPT Increase - Number of Reports” value was “>= 4”.
As to `CC(C)c1nc(CN(C)C(=O)N[C@H](C(=O)N[C@@H](Cc2ccccc2)C[C@H](O)[C@H](Cc2ccccc2)NC(=O)OCc2cncs2)C(C)C)cs1` [RITONAVIR], in the data set on Hepatotoxicity [1], the “Alkaline Phosphatase Increase - Number of Reports” value was “>= 4”. In addition, the “SGOT Increase - Number of Reports” value with Hepatotoxicity [2] was “>= 4”. In addition, the “LDH Increase - Number of Reports” value in the data set with Hepatotoxicity [3] is listed as “>= 4”. For the same compound, the “GGT Increase - Number of Reports” value with Hepatotoxicity [5] is reported as “>= 4”. Moreover, in the data set on Hepatotoxicity [6], the “SGPT Increase - Number of Reports” value is reported as “>= 4”.
